SMILES strings stand for the structures. pIC50: −log10 of the molar value. Where only a bound is given, the exact number is not on record here.

For assay [1], the target named is T1, human recombinant HDAC1 (Homo sapiens, UniProt Q13547).
T1 construct: purchased Enzo Life Sciences, Inc. BML-SE456
The assay can be described thus: In vitro HDAC enzyme activity inhibition assay, HDAC1 (HDAC Fluorimetric Drug Discovery Kit). The class given is biochemical. To be noted: human recombinant HDAC1, Fluor de Lys-SIRT1 substrate 10 μM, 30° C. for 60 minutes. The method, boiled down:
(§1)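 Fluorimetric deacetylase kit; 0.3 μg human recombinant enzyme with 10 μM Fluor de Lys-SIRT1 substrate, 60 min at 30° C, then developer 30 min. Fluorescence read at Ex 360/Em 460; IC50 from 5-fold compound dilutions. HDAC1 and HDAC6 run by the same protocol.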

Assay [2] addresses T2, human recombinant HDAC6 (Homo sapiens, UniProt Q9UBN7).
T2 construct: purchased Calbiochem Inc. 382180
T2 sequence (Q9UBN7 1-1215): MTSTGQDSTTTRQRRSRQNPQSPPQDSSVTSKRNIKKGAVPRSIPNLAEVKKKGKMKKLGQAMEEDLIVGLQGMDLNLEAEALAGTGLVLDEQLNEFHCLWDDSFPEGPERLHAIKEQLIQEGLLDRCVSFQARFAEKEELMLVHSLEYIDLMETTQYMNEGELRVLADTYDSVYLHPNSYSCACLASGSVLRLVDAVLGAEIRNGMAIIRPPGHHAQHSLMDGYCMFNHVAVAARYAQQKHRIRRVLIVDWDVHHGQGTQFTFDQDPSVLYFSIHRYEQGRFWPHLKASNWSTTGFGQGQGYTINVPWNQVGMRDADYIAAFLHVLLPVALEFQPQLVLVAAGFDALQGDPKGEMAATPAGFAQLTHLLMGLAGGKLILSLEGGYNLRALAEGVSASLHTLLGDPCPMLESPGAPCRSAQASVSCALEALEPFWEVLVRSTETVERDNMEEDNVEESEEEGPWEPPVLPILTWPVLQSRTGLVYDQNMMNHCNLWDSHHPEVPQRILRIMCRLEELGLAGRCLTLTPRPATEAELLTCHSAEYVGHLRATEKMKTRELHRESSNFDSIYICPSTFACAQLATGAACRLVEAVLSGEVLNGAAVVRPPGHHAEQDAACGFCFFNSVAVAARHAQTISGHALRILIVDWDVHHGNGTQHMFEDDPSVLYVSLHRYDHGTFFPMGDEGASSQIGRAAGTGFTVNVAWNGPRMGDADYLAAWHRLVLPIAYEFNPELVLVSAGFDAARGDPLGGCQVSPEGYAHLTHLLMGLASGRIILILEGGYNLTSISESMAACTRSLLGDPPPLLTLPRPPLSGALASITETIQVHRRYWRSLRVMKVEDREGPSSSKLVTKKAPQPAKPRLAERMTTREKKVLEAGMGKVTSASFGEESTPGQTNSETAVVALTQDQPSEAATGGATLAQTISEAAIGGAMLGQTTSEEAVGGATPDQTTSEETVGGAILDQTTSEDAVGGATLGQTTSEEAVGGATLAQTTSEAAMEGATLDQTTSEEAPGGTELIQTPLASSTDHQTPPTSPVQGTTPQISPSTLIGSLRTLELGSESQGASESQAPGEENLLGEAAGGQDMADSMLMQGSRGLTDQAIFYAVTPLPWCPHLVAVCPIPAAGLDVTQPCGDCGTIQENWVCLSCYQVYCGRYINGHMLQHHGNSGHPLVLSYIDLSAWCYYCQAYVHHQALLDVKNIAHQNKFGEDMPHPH
In words: In vitro HDAC enzyme activity inhibition assay, HDAC6 (HDAC Fluorimetric Drug Discovery Kit). To be noted: for HDAC6 Selectivity (fold): HDAC6 versus HDAC1; for pIC50: human recombinant HDAC6, same protocol as the HDAC1 test. The assay is classed as biochemical. The method, boiled down:
as §1

T1 sequence (Q13547 whole entry): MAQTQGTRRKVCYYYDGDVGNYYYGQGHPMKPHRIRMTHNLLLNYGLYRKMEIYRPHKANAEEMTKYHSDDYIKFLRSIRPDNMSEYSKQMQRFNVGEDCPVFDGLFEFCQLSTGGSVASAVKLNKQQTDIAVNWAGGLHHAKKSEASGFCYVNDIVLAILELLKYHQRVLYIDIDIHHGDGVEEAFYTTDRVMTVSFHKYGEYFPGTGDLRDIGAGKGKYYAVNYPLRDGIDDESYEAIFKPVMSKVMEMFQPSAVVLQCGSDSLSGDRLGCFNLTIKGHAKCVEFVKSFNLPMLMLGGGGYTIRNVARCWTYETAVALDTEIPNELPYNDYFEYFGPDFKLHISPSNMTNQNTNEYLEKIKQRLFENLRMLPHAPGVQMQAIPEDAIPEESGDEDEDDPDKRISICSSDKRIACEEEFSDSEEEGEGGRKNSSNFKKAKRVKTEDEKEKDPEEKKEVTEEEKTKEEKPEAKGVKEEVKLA

Take `O=C(C1CCN(C2CCC(F)(F)CC2)CC1)N(Cc1cn2ccc(-c3nnc(C(F)F)o3)cc2n1)c1ccccc1` [Compound 4121, 1-(4,4-difluorocyclohexyl)-N-((7-(5-(difluoromethyl)-1,3,4-oxadiazol-2-yl)imidazo[1,2-a]pyridin-2-yl)methyl)-N-phenylpiperidine-4-carboxamide]: the pIC50 in assay [1] is less than 4.30. In addition, in assay [2], the “HDAC6 Selectivity (fold)” value was found to be 122 fold and the pIC50 is 6.39.

For `FC(F)c1nnc(-c2ccn3cc(CNc4cccnc4)nc3c2)o1` [Compound 3675, N-((7-(5-(difluoromethyl)-1,3,4-oxadiazol-2-yl)imidazo[1,2-a]pyridin-2-yl)methyl)pyridin-3-amine], in assay [1], the pIC50 is less than 4.30. In assay [2], the “HDAC6 Selectivity (fold)” value came to 401 fold and the pIC50 was 6.90.

As to `O=C(C1CN(c2ccccn2)C1)N(Cc1cn2ccc(-c3nnc(C(F)F)o3)cc2n1)c1ccccc1` [Compound 4176, N-((7-(5-(difluoromethyl)-1,3,4-oxadiazol-2-yl)imidazo[1,2-a]pyridin-2-yl)methyl)-N-phenyl-1-(pyridin-2-yl) azetidine-3-carboxamide], the pIC50 in assay [1] is less than 4.30; in assay [2], 6.60. Besides, the “HDAC6 Selectivity (fold)” value in assay [2] is recorded as 199 fold.

For the compound `FC(F)c1nnc(-c2ccn3cc(Cc4ccc(Cl)cc4)nc3c2)o1` [Compound 3593, 2-(2-(4-chlorobenzyl)imidazo[1,2-a]pyridin-7-yl)-5-(difluoromethyl)-1,3,4-oxadiazole], the values for the pIC50 in assay [1] and in assay [2] were less than 4.30 and 6.58, respectively. Further, the “HDAC6 Selectivity (fold)” value in assay [2] was found to be 191 fold.

Take `O=C(C1CN(C(=O)C(F)(F)F)C1)N(Cc1cn2ccc(-c3nnc(C(F)F)o3)cc2n1)c1cccc(F)c1` [Compound 4202, N-((7-(5-(difluoromethyl)-1,3,4-oxadiazol-2-yl)imidazo[1,2-a]pyridin-2-yl)methyl)-N-(3-fluorophenyl)-1-(2,2,2-trifluoroacetyl) azetidine-3-carboxamide]: the pIC50 in assay [1] is less than 4.30. For the same compound, in assay [2], the “HDAC6 Selectivity (fold)” value worked out at 274 fold and the pIC50 is 6.74.

Regarding `O=C(C1CCN(C2CCCCC2)CC1)N(Cc1cn2ccc(-c3nnc(C(F)F)o3)cc2n1)c1cccc(F)c1` [Compound 4143, 1-cyclohexyl-N-((7-(5-(difluoromethyl)-1,3,4-oxadiazol-2-yl)imidazo[1,2-a]pyridin-2-yl)methyl)-N-(3-fluorophenyl)piperidine-4-carboxamide], the pIC50 in assay [1] was less than 4.30; in assay [2] it was 6.83. Further, the “HDAC6 Selectivity (fold)” value in assay [2] came out at 335 fold.

In the case of `CC(=O)c1cccc(NCc2cn3ccc(-c4nnc(C(F)F)o4)cc3n2)c1` [Compound 3669], the negative logarithm of the IC50 (pIC50) in assay [1] is less than 4.30. Also, in assay [2], the “HDAC6 Selectivity (fold)” value is recorded as 426 fold and the negative-log IC50 (pIC50) was 6.93.

Turning to `CCC(=O)N1CC(C(=O)N(Cc2cn3ccc(-c4nnc(C(F)F)o4)cc3n2)c2ccccc2)C1` [Compound 4168, N-((7-(5-(difluoromethyl)-1,3,4-oxadiazol-2-yl)imidazo[1,2-a]pyridin-2-yl)methyl)-N-phenyl-1-propionylazetidine-3-carboxamide], the pIC50 in assay [1] was less than 4.30. Also, in assay [2], the “HDAC6 Selectivity (fold)” value was found to be 125 fold and the pIC50 was 6.40.

For the compound `O=C(C1CN(C2CCCCC2)C1)N(Cc1cn2ccc(-c3nnc(C(F)F)o3)cc2n1)c1ccccc1` [Compound 4164, 1-cyclohexyl-N-((7-(5-(difluoromethyl)-1,3,4-oxadiazol-2-yl)imidazo[1,2-a]pyridin-2-yl)methyl)-N-phenylazetidine-3-carboxamide], the pIC50 in assay [1] is less than 4.30. Further, in assay [2], the “HDAC6 Selectivity (fold)” value was found to be 147 fold and the pIC50 is 6.47.

Consider `FC(F)c1nnc(-c2ccn3cc(CNc4ccc(C(F)(F)F)cc4)nc3c2)o1` [Compound 3673, N-((7-(5-(difluoromethyl)-1,3,4-oxadiazol-2-yl)imidazo[1,2-a]pyridin-2-yl)methyl)-4-(trifluoromethyl)aniline], for which the pIC50 was less than 4.30 in assay [1] and 6.40 in assay [2]. In addition, the “HDAC6 Selectivity (fold)” value in assay [2] is 125 fold.

Turning to `CS(=O)(=O)N1CCN(C(=O)N(Cc2cn3ccc(-c4nnc(C(F)F)o4)cc3n2)c2cccc(F)c2)CC1` [Compound 4097, N-((7-(5-(difluoromethyl)-1,3,4-oxadiazol-2-yl)imidazo[1,2-a]pyridin-2-yl)methyl)-N-(3-fluorophenyl)-4-(methylsulfonyl)piperazine-1-carboxamide], in assay [1], the pIC50 was less than 4.30. Moreover, in assay [2], the “HDAC6 Selectivity (fold)” value is given as 335 fold and the pIC50 is 6.83.

With `CC(C)N1CCN(C(=O)N(Cc2cn3ccc(-c4nnc(C(F)F)o4)cc3n2)c2ccccc2)CC1` [Compound 4034, N-((7-(5-(difluoromethyl)-1,3,4-oxadiazol-2-yl)imidazo[1,2-a]pyridin-2-yl)methyl)-4-isopropyl-N-phenylpiperazine-1-carboxamide], the results for the negative-log IC50 (pIC50) in assay [1] and in assay [2] were less than 4.30 and 6.99, respectively. In assay [2], the “HDAC6 Selectivity (fold)” value was 485 fold.

Regarding `CC(=O)c1ccc(Cc2cn3ccc(-c4nnc(C(F)F)o4)cc3n2)cc1` [Compound 3592, 1-(4-((7-(5-(difluoromethyl)-1,3,4-oxadiazol-2-yl)imidazo[1,2-a]pyridin-2-yl)methyl)phenyl)ethan-1-one], the pIC50 in assay [1] is less than 4.30; in assay [2] it was 6.34. Moreover, the “HDAC6 Selectivity (fold)” value in assay [2] is on record as 109 fold.

Turning to `O=C(C1COC1)N1CCC(C(=O)N(Cc2cn3ccc(-c4nnc(C(F)F)o4)cc3n2)c2cccc(F)c2)CC1` [Compound 4151, N-((7-(5-(difluoromethyl)-1,3,4-oxadiazol-2-yl)imidazo[1,2-a]pyridin-2-yl)methyl)-N-(3-fluorophenyl)-1-(oxetane-3-carbonyl)piperidine-4-carboxamide], the values for the pIC50 in assay [1] and in assay [2] were less than 4.30 and 6.69, respectively. Also, in assay [2], the “HDAC6 Selectivity (fold)” value is recorded as 245 fold.

For the compound `O=C(C1CCN(C2CCC2)CC1)N(Cc1cn2ccc(-c3nnc(C(F)F)o3)cc2n1)c1cccc(F)c1` [Compound 4141, 1-cyclobutyl-N-((7-(5-(difluoromethyl)-1,3,4-oxadiazol-2-yl)imidazo[1,2-a]pyridin-2-yl)methyl)-N-(3-fluorophenyl)piperidine-4-carboxamide], the pIC50 in assay [1] was less than 4.30. In addition, in assay [2], the “HDAC6 Selectivity (fold)” value was determined as 204 fold and the pIC50 is 6.61.

Regarding `CC(CO)N1CC(C(=O)N(Cc2cn3ccc(-c4nnc(C(F)F)o4)cc3n2)c2cccc(F)c2)C1` (stereo not drawn) [Compound 4191, N-((7-(5-(difluoromethyl)-1,3,4-oxadiazol-2-yl)imidazo[1,2-a]pyridin-2-yl)methyl)-N-(3-fluorophenyl)-1-(1-hydroxypropan-2-yl) azetidine-3-carboxamide], the figures for the pIC50 in assay [1] and in assay [2] were less than 4.30 and 6.87, respectively. Further, the “HDAC6 Selectivity (fold)” value in assay [2] stood at 373 fold.

Turning to `FC(F)c1nnc(-c2ccn3cc(COc4ccccc4)nc3c2)o1` [Compound 3719, 2-(difluoromethyl)-5-(2-(phenoxymethyl)imidazo[1,2-a]pyridin-7-yl)-1,3,4-oxadiazole], in assay [1], the pIC50 is less than 4.30. In assay [2], the “HDAC6 Selectivity (fold)” value was determined as 237 fold and the pIC50 is 6.68.

`O=C(N1CCN(c2ccccn2)CC1)N(Cc1cn2ccc(-c3nnc(C(F)F)o3)cc2n1)c1cccc(F)c1` [Compound 4100, N-((7-(5-(difluoromethyl)-1,3,4-oxadiazol-2-yl)imidazo[1,2-a]pyridin-2-yl)methyl)-N-(3-fluorophenyl)-4-(pyridin-2-yl)piperazine-1-carboxamide]: the figures for the pIC50 in assay [1] and in assay [2] were less than 4.30 and 6.33, respectively. In assay [2], the “HDAC6 Selectivity (fold)” value came to 107 fold.

(Values after patent US12522601B2, “1,3,4-oxadiazole derivative compounds as histone deacetylase 6 inhibitor, and the pharmaceutical composition comprising the same” (CHONG KUN DANG PHARMACEUTICAL CORP., priority 2020, dated 2026).)
